How the values were obtained:
Karpas 422 cells = test: Karpas 422 cell viability, CTG (Cell Titre Glo) assay; format: cell-based, human; conditions: Homo sapiens; Inhibition of proliferation of Karpas 422 cells (EZH2 Y641N); viability measured Day 4, Day 7 or Day 11, time point of the tabulated values not stated
Procedure, shortened: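 Karpas 422 cells (EZH2 Y641N, DLBCL) plated at 1000 cells/well in RPMI with 20% FBS, exposed to compound 10µM down to 1.5nM in 3-fold steps at 37 °C. Viability by CellTiter-Glo on Days 4, 7 and 11; Day 11 plates re-fed with fresh medium and compound on Day 7. IC50 per time point.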

[1] = molecular target: purified human, His-tagged PRC2 complex (Homo sapiens, UniProt O75530+Q15910); test: Hot Spot HMT assay: inhibition of PRC2 enzymatic activity (transfer of tritiated methyl from SAM to core histone, filter binding); format: biochemical; conditions: Inhibition of PRC2-mediated enzymatic activity; 10 nM PRC2 complex, 0.05 mg/ml core histone H3, 1 uM 3H-SAM, 1 hr at 30°C
purified human, His-tagged PRC2 complex, sequence (Q15910 whole entry): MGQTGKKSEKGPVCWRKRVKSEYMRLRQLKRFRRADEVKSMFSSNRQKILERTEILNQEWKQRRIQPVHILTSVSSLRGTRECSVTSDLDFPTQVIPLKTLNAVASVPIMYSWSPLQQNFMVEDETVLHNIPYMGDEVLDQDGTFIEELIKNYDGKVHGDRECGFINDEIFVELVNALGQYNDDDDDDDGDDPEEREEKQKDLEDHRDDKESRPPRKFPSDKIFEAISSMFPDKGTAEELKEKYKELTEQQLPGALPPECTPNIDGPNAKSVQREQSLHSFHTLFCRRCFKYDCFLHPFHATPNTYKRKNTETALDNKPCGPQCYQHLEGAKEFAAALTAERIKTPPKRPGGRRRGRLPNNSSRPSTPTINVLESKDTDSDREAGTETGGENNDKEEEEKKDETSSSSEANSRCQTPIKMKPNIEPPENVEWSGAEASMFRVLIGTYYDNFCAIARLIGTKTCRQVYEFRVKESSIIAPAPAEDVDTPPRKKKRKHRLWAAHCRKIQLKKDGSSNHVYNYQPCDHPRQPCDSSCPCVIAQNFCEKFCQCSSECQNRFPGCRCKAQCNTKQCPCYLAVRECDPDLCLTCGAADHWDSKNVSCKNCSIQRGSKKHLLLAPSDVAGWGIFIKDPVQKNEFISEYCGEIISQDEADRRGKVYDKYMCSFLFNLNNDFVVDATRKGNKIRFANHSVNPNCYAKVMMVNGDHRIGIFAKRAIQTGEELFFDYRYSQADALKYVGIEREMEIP
purified human, His-tagged PRC2 complex, sequence (O75530 whole entry): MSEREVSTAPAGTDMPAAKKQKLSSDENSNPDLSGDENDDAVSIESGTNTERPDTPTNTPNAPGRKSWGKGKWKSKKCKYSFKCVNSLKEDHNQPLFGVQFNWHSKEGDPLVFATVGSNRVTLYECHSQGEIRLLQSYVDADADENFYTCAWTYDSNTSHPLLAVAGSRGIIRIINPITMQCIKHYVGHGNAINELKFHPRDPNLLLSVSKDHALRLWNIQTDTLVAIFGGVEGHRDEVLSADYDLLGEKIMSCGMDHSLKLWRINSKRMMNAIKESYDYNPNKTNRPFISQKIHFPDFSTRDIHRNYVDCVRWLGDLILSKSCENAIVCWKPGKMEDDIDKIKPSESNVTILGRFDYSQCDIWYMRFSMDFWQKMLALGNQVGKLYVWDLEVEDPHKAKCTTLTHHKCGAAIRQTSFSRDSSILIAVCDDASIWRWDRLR
purified human, His-tagged PRC2 complex, sequence (Q15022 whole entry partner): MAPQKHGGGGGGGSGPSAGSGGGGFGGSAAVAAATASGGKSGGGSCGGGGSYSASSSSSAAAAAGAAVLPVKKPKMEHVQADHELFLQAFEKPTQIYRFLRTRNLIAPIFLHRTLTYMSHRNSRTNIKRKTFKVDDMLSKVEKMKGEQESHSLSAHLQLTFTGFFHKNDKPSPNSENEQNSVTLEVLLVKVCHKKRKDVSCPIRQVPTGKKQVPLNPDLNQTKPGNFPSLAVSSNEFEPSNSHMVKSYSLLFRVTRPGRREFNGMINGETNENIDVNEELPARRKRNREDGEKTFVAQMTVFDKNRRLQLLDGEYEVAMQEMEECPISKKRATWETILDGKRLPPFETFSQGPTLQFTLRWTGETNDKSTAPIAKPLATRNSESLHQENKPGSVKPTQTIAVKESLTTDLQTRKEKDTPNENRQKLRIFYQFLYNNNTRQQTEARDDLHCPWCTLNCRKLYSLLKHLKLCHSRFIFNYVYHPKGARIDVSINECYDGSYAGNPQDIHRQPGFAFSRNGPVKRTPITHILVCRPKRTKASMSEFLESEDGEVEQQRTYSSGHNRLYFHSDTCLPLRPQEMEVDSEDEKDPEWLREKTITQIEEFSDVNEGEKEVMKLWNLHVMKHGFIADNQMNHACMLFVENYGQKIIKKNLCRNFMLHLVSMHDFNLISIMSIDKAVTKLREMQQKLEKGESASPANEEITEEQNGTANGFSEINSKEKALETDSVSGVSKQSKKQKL
purified human, His-tagged PRC2 complex, sequence (Q6ZN18 whole entry partner): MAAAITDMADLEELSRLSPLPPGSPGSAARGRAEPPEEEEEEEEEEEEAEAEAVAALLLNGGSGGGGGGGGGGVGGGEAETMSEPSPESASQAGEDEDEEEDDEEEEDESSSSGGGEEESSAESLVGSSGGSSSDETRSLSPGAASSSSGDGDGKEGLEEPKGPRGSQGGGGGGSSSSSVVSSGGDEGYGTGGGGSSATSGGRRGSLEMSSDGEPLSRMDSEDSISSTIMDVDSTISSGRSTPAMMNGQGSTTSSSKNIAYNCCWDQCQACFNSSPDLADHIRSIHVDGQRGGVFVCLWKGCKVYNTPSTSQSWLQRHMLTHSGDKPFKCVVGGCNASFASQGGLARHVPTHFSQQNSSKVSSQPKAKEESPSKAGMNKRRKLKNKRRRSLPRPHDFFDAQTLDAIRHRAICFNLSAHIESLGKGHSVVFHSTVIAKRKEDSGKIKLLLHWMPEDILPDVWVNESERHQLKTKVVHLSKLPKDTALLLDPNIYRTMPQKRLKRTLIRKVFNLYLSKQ
purified human, His-tagged PRC2 complex, sequence (Q09028 whole entry partner): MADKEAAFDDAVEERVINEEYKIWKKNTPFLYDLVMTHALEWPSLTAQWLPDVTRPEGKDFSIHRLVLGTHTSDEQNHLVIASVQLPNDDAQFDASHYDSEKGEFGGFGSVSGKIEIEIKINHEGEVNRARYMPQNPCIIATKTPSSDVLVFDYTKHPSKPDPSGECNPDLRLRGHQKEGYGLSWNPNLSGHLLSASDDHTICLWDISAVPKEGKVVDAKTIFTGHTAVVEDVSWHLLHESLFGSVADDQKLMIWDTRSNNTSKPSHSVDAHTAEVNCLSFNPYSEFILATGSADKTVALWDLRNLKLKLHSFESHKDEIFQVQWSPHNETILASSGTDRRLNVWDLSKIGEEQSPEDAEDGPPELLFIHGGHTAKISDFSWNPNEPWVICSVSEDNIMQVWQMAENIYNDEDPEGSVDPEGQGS
Procedure, shortened: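 Five-subunit complex (His-EZH2, Flag-EED, His-SUZ12, His-AEBP2, His-RbAp48) at 10 nM with 0.05 mg/ml core histone H3, pH 8 Tris buffer, 1% DMSO; 20 min compound pre-incubation at 30°C. Started with 1 uM [3H]-SAM, 1 hr at 30°C; tritiated H3 counted by scintillation. Compounds diluted from 1.0 µM top concentration.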

[2] = test system: PRC2-mediated histone H3 methylation; test: Tri-Methyl Histone H3 (Lys 27) Sandwich ELISA in Pfeiffer cells: inhibition of PRC2-mediated histone H3 methylation; format: cell-based, human; conditions: Homo sapiens; Inhibition of EZH2-mediated histone H3 trimethylation; Pfeiffer cells (EZH2 A677G), 96 hours incubation
Procedure, shortened: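 Pfeiffer DLBCL cells (EZH2 A677G mutant) treated with 3-fold serial dilutions, 1µM to 0.15 nM final, for 96 hours at 37°C. Acid (0.4M HCl) histone extracts, neutralized, assayed by H3K27me3 sandwich ELISA with HRP/TMB read at 450 nm.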

SMILES	IC50 (Karpas 422 cells) [nM]	IC50 [1] [nM]	IC50 [2] [nM]
N#Cc1cn2c(NCc3c(F)ccc4c3CCO4)ncc(-c3ccc4c(c3)CNC4)c2n1 [Example 205, 5-(((5-fluoro-2,3-dihydrobenzofuran-4-yl)methyl)amino)-8-(isoindolin-5-yl)imidazo[1,2-c]pyrimidine-2-carbonitrile]	≤ 250	100 to 500	≤ 100
Cc1ncccc1-c1cnc(NCc2c(F)ccc3occc23)n2cc(C(=O)O)nc12 [Example 3, 5-(((5-fluorobenzofuran-4-yl)methyl)amino)-8-(2-methylpyridin-3-yl)imidazo[1,2-c]pyrimidine-2-carboxylic acid]	> 500	100 to 500	> 500
N#Cc1cn2c(NCc3c(F)ccc4c3CCO4)ncc(-c3ccc(C4CCCO4)cc3)c2n1 (stereo not drawn) [Example 162, 5-(((5-fluoro-2,3-dihydrobenzofuran-4-yl)methyl)amino)-8-(4-(tetrahydrofuran-2-yl)phenyl)imidazo[1,2-c]pyrimidine-2-carbonitrile]	250 to 500	< 100	100 to 500
N#Cc1cn2c(NCc3c(F)ccc4c3CCO4)ncc(-c3ccc([C@@H]4CCCN4)cc3)c2n1 [Example 219, (S)-5-(((5-fluoro-2,3-dihydrobenzofuran-4-yl)methyl)amino)-8-(4-(pyrrolidin-2-yl)phenyl)imidazo[1,2-c]pyrimidine-2-carbonitrile]	≤ 250	< 100	100 to 500
N#Cc1cn2c(NCc3c(F)ccc4c3CCO4)ncc(-c3ccc(C(=O)O)nc3)c2n1 [Example 215, 5-(2-cyano-5-(((5-fluoro-2,3-dihydrobenzofuran-4-yl)methyl)amino)imidazo[1,2-c]pyrimidin-8-yl)picolinic acid]	> 500	< 100	> 500
N#Cc1cn2c(NCc3c(F)ccc4c3CCO4)ncc(-c3ccc(C4CCN4)cc3)c2n1 (stereo not drawn) [Example 226, 8-(4-(azetidin-2-yl)phenyl)-5-(((5-fluoro-2,3-dihydrobenzofuran-4-yl)methyl)amino)imidazo[1,2-c]pyrimidine-2-carbonitrile]	≤ 250	100 to 500	100 to 500
CN1CCOCC1c1ccc(-c2cnc(NCc3c(F)ccc4c3CCO4)n3cc(C#N)nc23)cc1 (stereo not drawn) [Example 227, 5-(((5-fluoro-2,3-dihydrobenzofuran-4-yl)methyl)amino)-8-(4-(4-methylmorpholin-3-yl)phenyl)imidazo[1,2-c]pyrimidine-2-carbonitrile]	≤ 250	< 100	100 to 500
CN(C)CCc1cccc(-c2cnc(NCc3c(F)ccc4c3CCO4)n3cc(C#N)nc23)c1 [Example 217, 8-(3-(2-(dimethylamino)ethyl)phenyl)-5-(((5-fluoro-2,3-dihydrobenzofuran-4-yl)methyl)amino)imidazo[1,2-c]pyrimidine-2-carbonitrile]	≤ 250	< 100	100 to 500
Cc1cc(C(=O)N(C)C)ncc1-c1cnc(NCc2c(F)ccc3c2CCO3)n2cc(C#N)nc12 [Example 76, 5-(2-cyano-5-(((5-fluoro-2,3-dihydrobenzofuran-4-yl)methyl)amino)imidazo[1,2-c]pyrimidin-8-yl)-N,N,4-trimethylpicolinamide]	≤ 250	< 100	≤ 100
N#Cc1cc(-c2cnc(NCc3c(F)ccc4c3CCO4)n3cc(C#N)nc23)ccn1 [Example 188, 8-(2-cyanopyridin-4-yl)-5-(((5-fluoro-2,3-dihydrobenzofuran-4-yl)methyl)amino)imidazo[1,2-c]pyrimidine-2-carbonitrile]	250 to 500	100 to 500	100 to 500
CN(C)C(=O)c1ccc(-c2cnc(NCc3c(F)ccc4c3CCO4)n3cc(C#N)nc23)c(Cl)c1 [Example 31, 3-chloro-4-(2-cyano-5-(((5-fluoro-2,3-dihydrobenzofuran-4-yl)methyl)amino)imidazo[1,2-c]pyrimidin-8-yl)-N,N-dimethylbenzamide]	≤ 250	< 100	≤ 100
Cc1nc(CN(C)C)ccc1-c1cnc(NCc2c(F)ccc3c2CCO3)n2cc(C#N)nc12 [Example 152, 8-(6-((dimethylamino)methyl)-2-methylpyridin-3-yl)-5-(((5-fluoro-2,3-dihydrobenzofuran-4-yl)methyl)amino)imidazo[1,2-c]pyrimidine-2-carbonitrile]	≤ 250	100 to 500	100 to 500
Cc1cc(-c2cnc(NCc3c(F)ccc4c3CCO4)n3cc(C(N)=O)nc23)n(C)n1 [Example 11, 8-(1,3-dimethyl-1H-pyrazol-5-yl)-5-(((5-fluoro-2,3-dihydrobenzofuran-4-yl)methyl)amino)imidazo[1,2-c]pyrimidine-2-carboxamide]	≤ 250	< 100	≤ 100
N#Cc1cn2c(NCc3c(F)ccc4c3CCO4)ncc(-c3ccc4c(c3)CCNC4)c2n1 [Example 203, 5-(((5-fluoro-2,3-dihydrobenzofuran-4-yl)methyl)amino)-8-(1,2,3,4-tetrahydroisoquinolin-6-yl)imidazo[1,2-c]pyrimidine-2-carbonitrile]	250 to 500	100 to 500	100 to 500
N#Cc1cn2c(NCc3c(F)ccc4c3CCO4)ncc(C3CC3)c2n1 [Example 77, 8-cyclopropyl-5-(((5-fluoro-2,3-dihydrobenzofuran-4-yl)methyl)amino)imidazo[1,2-c]pyrimidine-2-carbonitrile]	> 500	100 to 500	> 500
N#Cc1cn2c(NCc3c(F)ccc4c3CCO4)ncc(-c3ccc(CN4CCCC4=O)cc3)c2n1 [Example 49, 5-(((5-fluoro-2,3-dihydrobenzofuran-4-yl)methyl)amino)-8-(4-((2-oxopyrrolidin-1-yl)methyl)phenyl)imidazo[1,2-c]pyrimidine-2-carbonitrile]	≤ 250	< 100	100 to 500
CN(C)Cc1ccc(-c2cnc(NCc3c(F)ccc4c3CCO4)n3cc(C#N)nc23)c(C#N)c1 [Example 198, 8-(2-cyano-4-((dimethylamino)methyl)phenyl)-5-(((5-fluoro-2,3-dihydrobenzofuran-4-yl)methyl)amino)imidazo[1,2-c]pyrimidine-2-carbonitrile]	≤ 250	< 100	100 to 500
CNCc1ccc(-c2cnc(NCc3c(F)ccc4c3CCO4)n3cc(C#N)nc23)c(C)c1 [Example 196, 5-(((5-fluoro-2,3-dihydrobenzofuran-4-yl)methyl)amino)-8-(2-methyl-4-((methylamino)methyl)phenyl)imidazo[1,2-c]pyrimidine-2-carbonitrile]	≤ 250	100 to 500	100 to 500
COC1CN(Cc2ccc(-c3cnc(NCc4c(F)ccc5c4CCO5)n4cc(C#N)nc34)cc2)C1 [Example 50, 5-(((5-fluoro-2,3-dihydrobenzofuran-4-yl)methyl)amino)-8-(4-((3-methoxyazetidin-1-yl)methyl)phenyl)imidazo[1,2-c]pyrimidine-2-carbonitrile]	≤ 250	< 100	100 to 500
CC(O)Cn1cc(-c2cnc(NCc3c(F)ccc4c3CCO4)n3cc(C#N)nc23)cn1 (stereo not drawn) [Example 179, 5-(((5-fluoro-2,3-dihydrobenzofuran-4-yl)methyl)amino)-8-(1-(2-hydroxypropyl)-1H-pyrazol-4-yl)imidazo[1,2-c]pyrimidine-2-carbonitrile]	> 500	< 100	100 to 500
Cc1ccc(-c2cnc(NCc3c(F)ccc4c3CCO4)n3cc(C#N)nc23)c(C)n1 [Example 67, 8-(2,6-dimethylpyridin-3-yl)-5-(((5-fluoro-2,3-dihydrobenzofuran-4-yl)methyl)amino)imidazo[1,2-c]pyrimidine-2-carbonitrile]	≤ 250	< 100	≤ 100
N#Cc1cn2c(NCc3c(F)ccc4c3CCO4)ncc(-c3ccc(-c4nnn[nH]4)cc3)c2n1 [Example 190, 8-(4-(1H-tetrazol-5-yl)phenyl)-5-(((5-fluoro-2,3-dihydrobenzofuran-4-yl)methyl)amino)imidazo[1,2-c]pyrimidine-2-carbonitrile]	> 500	< 100	> 500
N#Cc1cn2c(NCc3c(F)ccc4c3CCO4)ncc(-c3ccc(CN4CCCC4)cc3)c2n1 [Example 74, 5-(((5-fluoro-2,3-dihydrobenzofuran-4-yl)methyl)amino)-8-(4-(pyrrolidin-1 - ylmethyl)phenyl)imidazo[1,2-c]pyrimidine-2-carbonitrile]	≤ 250	< 100	≤ 100
COC(=O)c1cc(-c2cnc(NCc3c(F)ccc4c3CCO4)n3cc(C#N)nc23)n(C)n1 [Example 169, methyl 5-(2-cyano-5-(((5-fluoro-2,3-dihydrobenzofuran-4-yl)methyl)amino)imidazo[1,2-c]pyrimidin-8-yl)-1-methyl-1H-pyrazole-3-carboxylate]	≤ 250	< 100	100 to 500
